PMC11689655, “High-throughput screening of dual-target inhibitors for SARS-CoV-2 main protease and papain-like protease from Chebulae Fructus: in silico prediction and experimental verification” (Frontiers in Microbiology, 2024)
Where two headings read alike, the source gives them in different places.

Assays:
SARS-CoV-2 Omicron EG.5 = experiment: Antiviral activity (CPE inhibition) in Vero E6 cells, Omicron EG.5; format: cell-based; conditions: read-out: EC50 against Omicron EG.5 variant
SARS-CoV-2 Omicron BA.5 = experiment: Antiviral activity (CPE inhibition) in Vero E6 cells, Omicron BA.5; format: cell-based; conditions: read-out: EC50 against Omicron BA.5 variant
[1] = Severe acute respiratory syndrome coronavirus 2, Vero C1008, 48 h

SMILES | EC50 (SARS-CoV-2 Omicron EG.5) [µM] | EC50 (SARS-CoV-2 Omicron BA.5) [µM] | EC50 (SARS-CoV-2 Omicron EG.5; [1]) [µM] | EC50 (SARS-CoV-2 Omicron BA.5; [1]) [µM]
Cn1cnc(Cn2c(=O)[nH]/c(=N\c3cc4cn(C)nc4cc3Cl)n(Cc3cc(F)c(F)cc3F)c2=O)n1 [S-217622, reference compound] | 0.06 | 0.09 | – | –
O=C(OC[C@H]1O[C@@H](OC(=O)c2cc(O)c(O)c(O)c2)[C@H](OC(=O)c2cc(O)c(O)c(O)c2)[C@@H](OC(=O)c2cc(O)c(O)c(O)c2)[C@@H]1O)c1cc(O)c(O)c(O)c1 [TGG, 1,2,3,6-tetra-O-galloyl-β-D-glucose] | – | – | 37.3 | 25.7
O=C(OC[C@H]1O[C@@H](OC(=O)c2cc(O)c(O)c(O)c2)[C@H](OC(=O)c2cc(O)c(O)c(O)c2)[C@@H](OC(=O)c2cc(O)c(O)c(O)c2)[C@@H]1OC(=O)c1cc(O)c(O)c(O)c1)c1cc(O)c(O)c(O)c1 [PGG, 1,2,3,4,6-penta-O-galloyl-β-D-glucose] | – | – | 15.4 | 3.2
